Experimental data published in patent US20190192697A1, “CHEMICAL PROBES OF LYSYL OXIDASK-LIKE 2 AND USES THEREOF” (PHARMAKEA, INC., priority 2016, published 2019).
Where a name gives a salt, the structure may show the parent alone. Read-outs that look alike come from different tables or passages of the source.

Assays:
[1] = Plasma drug concentration in healthy human subjects after single oral dose; type: in vivo; conditions: for concentration at 2 h / concentration at 24 h: both sexes, human, plasma, read-out: Ave plasma Cmpd 2 conc; for concentration at 2 h: 2 hour post-dose
Experimental: The amount of free/unbound LOXL2 was evaluated in 8 mL plasma from six healthy subjects at pre-dose or at 2, 24 or 48 hours after a single oral dose of Compound 1-13A and in two healthy subjects dosed with placebo. On average, the amount of free/unbound LOXL2 was decreased by approximately 60% at 2 hours post-dosing in the subjects receiving 150 mg of Compound 1-13a (see FIG. 7).
Healthy human subjects (male and female) were dosed with compound 2 in solution. Blood samples were drawn at regular intervals and the plasma isolated and analyzed for compound 1-13a concentration as well as LOXL2 target engagement. Placebo data is the average of all the placebo subjects in the single dose study (n=10).

LOXL2 [2] = target: T1, LOXL2 (Homo sapiens, UniProt Q9Y4K0); assay: Western-based quantification of free LOXL2 captured with biotinylated LOXL2 inhibitor (Compound 1-1); type: binding; conditions: pre-incubation with 1-13a 1-2 hrs at 37° C., capture with Compound 1-1
T1 sequence (Q9Y4K0 26-774): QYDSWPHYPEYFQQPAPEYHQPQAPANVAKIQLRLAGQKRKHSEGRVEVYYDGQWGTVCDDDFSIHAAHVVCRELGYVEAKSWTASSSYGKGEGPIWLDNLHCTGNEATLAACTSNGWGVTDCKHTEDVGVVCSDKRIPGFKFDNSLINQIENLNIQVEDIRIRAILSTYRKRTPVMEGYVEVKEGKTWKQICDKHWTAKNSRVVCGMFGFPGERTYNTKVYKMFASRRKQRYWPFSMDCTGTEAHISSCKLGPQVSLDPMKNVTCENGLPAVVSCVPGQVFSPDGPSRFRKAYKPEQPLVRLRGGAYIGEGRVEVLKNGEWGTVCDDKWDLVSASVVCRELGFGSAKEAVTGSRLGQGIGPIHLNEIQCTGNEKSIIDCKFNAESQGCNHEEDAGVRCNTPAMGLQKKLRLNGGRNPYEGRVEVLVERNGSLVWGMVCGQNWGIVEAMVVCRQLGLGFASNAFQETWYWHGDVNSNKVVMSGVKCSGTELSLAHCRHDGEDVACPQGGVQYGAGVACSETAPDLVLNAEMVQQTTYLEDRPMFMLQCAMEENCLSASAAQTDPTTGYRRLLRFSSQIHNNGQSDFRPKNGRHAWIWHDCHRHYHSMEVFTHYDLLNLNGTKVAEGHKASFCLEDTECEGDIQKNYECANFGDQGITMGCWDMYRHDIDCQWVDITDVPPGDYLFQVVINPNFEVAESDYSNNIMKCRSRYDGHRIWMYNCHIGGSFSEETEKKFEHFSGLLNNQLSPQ
Experimental: To quantify LOXL2 using a Western-based assay, a suitable amount of the LOXL2 inhibitor 1-13a, such as 10 or DMSO was pre-incubated with a suitable amount of LOXL2, such as 1 ng, 10 ng, or 100 ng, for a suitable amount of time at an appropriate temperature, such as 1-2 hrs at 37° C. Then an appropriate amount of the biotinylated labeled LOXL2 inhibitor (Compound 1-1), such as 5, was added and was allowed to incubate with the LOXL2 for a suitable amount of time at an appropriate temperature, such as 1 hr at 37° C. Then the biotinylated labeled LOXL2 inhibitor (Compound 1-1)/LOXL2 complex was isolated with Streptavidin coated magnetic beads. After incubation with the streptavidin magnetic beads for an appropriate amount of time, a magnet (for example, DynaMag™-2 Magnet) was used to capture the biotinylated labeled LOXL2 inhibitor (Compound 1-1)/LOXL2 bead bound complex and the supernatant was removed. […]
A Western Blot is then performed with an anti-LOXL2 antibody to quantify the amount of LOXL2 bound to the biotinylated LOXL2 inhibitor (Compound 1-1).

LOXL2 [3] = target: T1, LOXL2; assay: Human LOXL2 amine oxidase activity assay (Amplex Red); type: biochemical; design: expressed in transfected cells; host or cells: CHO cells stably expressing human LOXL2; 10-20x concentrated conditioned media; conditions: concentrated conditioned media from CHO cells expressing human LOXL2; 2 h at 37° C. pre-incubation
Experimental: LOXL2 amine oxidase activity is evaluated by measuring Amplex Red fluorescence using 10-20× concentrated conditioned media from CHO cells stably expressing human LOXL2. To assay for amine oxidase activity, 10 μL of the concentrated conditioned media is incubated with 2 μL of test compound in DMSO and 73 μL Assay Buffer (50 mM Borate Buffer, pH8) for 2 h at 37° C. After the 2 h incubation, 5 μL of 10 mM 1,5-diaminopentane (DAP) diluted in Assay Buffer and 10 μL of Amplex Red Mix (8.5 μL Assay Buffer+0.5 μL of 10 mM Amplex Red+1 μL of 500 U/mL Horseradish Peroxidase) are added and the plate mixed and immediately placed on the FlexStaion for fluorescence measurements. Fluorescence is read in kinetic mode every 2 min for 1 hour at excitation=544 nm and emission=590 nm. The amine oxidase activity is calculated from the slope of the linear portion of the curve.

Q: What does the source list for `NCc1cc(Oc2cccc(C(=O)N3C[C@@H](O)[C@H](F)C3)c2)nc(C(F)(F)F)c1` [Compound 1-13a, (R,R)-trans-(3-((4-(Aminomethyl)-6-(trifluoromethyl)pyridin-2-yl)oxy)phenyl)(3-fluoro-4-hydroxypyrrolidin-1-yl)methanone hydrochloride]?
A: Ave plasma Cmpd 2 conc ([1]; 150 mg single oral dose, 24 hour post-dose): BLOQ; concentration at 2 h ([1]; 150 mg single oral dose): 966 nM; concentration at 2 h ([1]; 450 mg single oral dose): 4380 nM; concentration at 24 h ([1]; 450 mg single oral dose, 24 hour post-dose): 3.5 nM; concentration at 2 h ([1]; 1000 mg single oral dose): 12900 nM; concentration at 24 h ([1]; 1000 mg single oral dose, 24 hour post-dose): 8 nM; reduction of unbound/free LOXL2 captured by the biotinylated LOXL2 inhibitor (LOXL2 [2]): 70-100%; IC50 (LOXL2 [3]): < 300 nM
